Patent US9593127B2, “Heterocyclylalkyne derivatives and their use as modulators of mGluR5 receptors” (RECORDATI IRELAND LTD., priority 2014, dated 2017)

How the values were obtained:
[1] = molecular target: T1, human mGlu5 receptor (CHO T-REx h-mGluR5 cells) (Homo sapiens (Human), UniProt P41594); assay: Calcium fluorescence measurement, potentiation of mGlu5 activation at EC20 of glutamate; format: cell-based; settings: for Fold Increase 1 microM Glutam. / Fold Increase Glutam.: agonist glutamate; for EC50: potentiation, agonist glutamate at EC20, read-out: EC50 nM Glutam.
Source text: (§1) Cell lines stably transfected were generated using inducible expression vectors encoding human mGlu5 receptor using the Tetracycline-Regulated Expression system (T-REx™ system, Invitrogen, Life Technologies). Human mGluR5 open reading frame (ORF), comprehensive of the stop codon, were cloned into the pcDNA4/TO/myc-His™ A vector, carrying the TetO2 sequences. The insertion site was HindIII-PstI for mGluR5 receptors. The obtained constructs were then transfected into the T-REx CHO™ cell line using the FuGENE protocol (Roche); the CHO T-REx™ cell line stably expresses the Tet repressor (from the pcDNA6/TR plasmid) under the selection of blasticidin, 10 μg/ml. Stable clones were obtained selecting with zeocine 1 mg/ml and maintaining in ULTRA CHO medium (LONZA) supplemented with dialyzed FBS, zeocin, blasticidine, at 37° C., in an atmosphere of 5% CO2. The expression of h-mGluR5 receptors was de-repressed with 1 μg/ml tetracycline for 18 h before binding experimentation, while the expression of h-mGluR5 receptors was de-repressed respectively with 3 ng/ml and 10 ng/ml tetracycline for 18 h before calcium fluorescence experimentation.
(§2) Cells were seeded into black-walled, clear-bottom, 96-well plates at a density of 80000 cell/well, in RPMI (without Phenol Red, without L-glutamine; Gibco LifeTechnologies, CA) supplemented with 10% dialyzed FBS. Following 18-h incubation with tetracycline, the cells were loaded with […] Ca^2+—sensitive fluorescent dye Fluo-4/AM (Molecular Probes) in Hanks' balanced saline solution (HBSS, Gibco LifeTechnologies, CA) with 20 mM Hepes (Sigma) and 2.5 mM probenecid (Sigma), for 1 h at 37° C. The cells were washed three times with HBSS to remove extracellular dye. Fluorescence signals were measured by using the fluorescence microplate reader Flexstation III (Molecular Devices) at sampling intervals of 1.5 s for 60 s.
(§3) The antagonist potency was determined using the EC80 of the quisqualate used as agonist and the potentiation of mGlu5 activation was determined using the EC20 of the agonist (quisqualate or glutamate). The compounds were applied 10 minutes before the application of the agonist. For binding and calcium assay studies, the compounds were dissolved in DMSO or demineralized water according to their solubility. All the reported doses were those of the corresponding salts or bases.

[2] = molecular target: T1, human mGlu5 receptor (CHO T-REx h-mGluR5 cells); assay: Radioligand binding assay at cloned mGluR5 ([3H]MPEP displacement); settings: 4 nM [3H]MPEP, read-out: h.c. mglu R5 IC50
Source text: as §1
Affinity at transmembrane glutamate metabotropic mGluR5 receptor subtypes was evaluated according to the methods of Anderson (Anderson et al., J Pharmacol. Exp. Ther., (2002), Vol. 303(3), pp. 1044-51), with some modifications. Cloned mGluR5 was obtained by re-suspending CHO T-REx h-mGluR5 cells (50 μg/well) in 20 mM HEPES, 2 mM MgCl2, 2 mM CaCl2, pH 7.4, that then were incubated in a final volume of 1 ml for 60 min at 25° C. with 4 nM [^3H]MPEP in the absence or presence of competing drugs. Non-specific binding was determined in the presence of […] MPEP. The incubation was stopped by addition of cold Tris buffer pH 7.4 and rapid filtration through 0.2% polyethyleneimine pretreated Filtermat 1204-401 (Perkin Elmer) filters. The filters were then washed with cold buffer and the radioactivity retained on the filters was counted by liquid scintillation spectrometry (Betaplate 1204 BS-Wallac).
as §3
The inhibition curves of the tested compounds at native and cloned mGluR1 and mGluR5 subtypes were determined by nonlinear regression analysis using software Prism 4.0 (Graphpad, San Diego, Calif.). The IC50 values and pseudo-Hill slope coefficients were estimated by the program. The values for the inhibition constant, Ki, were calculated according to the equation Ki=IC50/(1+[L]/Kd), where [L] is the concentration of radioligand and Kd is the equilibrium dissociation constant of the radioligand-receptor complex (Cheng et al., Biochem. Pharmacol. (1973), Vol. 22, pp. 3099-3108).

[3] = molecular target: T1, human mGlu5 receptor (CHO T-REx h-mGluR5 cells); assay: Calcium fluorescence measurement, potentiation of mGlu5 activation at EC20 of quisqualate; format: cell-based
Source text: as §1, §2, §3

T1 sequence (P41594 21-1212): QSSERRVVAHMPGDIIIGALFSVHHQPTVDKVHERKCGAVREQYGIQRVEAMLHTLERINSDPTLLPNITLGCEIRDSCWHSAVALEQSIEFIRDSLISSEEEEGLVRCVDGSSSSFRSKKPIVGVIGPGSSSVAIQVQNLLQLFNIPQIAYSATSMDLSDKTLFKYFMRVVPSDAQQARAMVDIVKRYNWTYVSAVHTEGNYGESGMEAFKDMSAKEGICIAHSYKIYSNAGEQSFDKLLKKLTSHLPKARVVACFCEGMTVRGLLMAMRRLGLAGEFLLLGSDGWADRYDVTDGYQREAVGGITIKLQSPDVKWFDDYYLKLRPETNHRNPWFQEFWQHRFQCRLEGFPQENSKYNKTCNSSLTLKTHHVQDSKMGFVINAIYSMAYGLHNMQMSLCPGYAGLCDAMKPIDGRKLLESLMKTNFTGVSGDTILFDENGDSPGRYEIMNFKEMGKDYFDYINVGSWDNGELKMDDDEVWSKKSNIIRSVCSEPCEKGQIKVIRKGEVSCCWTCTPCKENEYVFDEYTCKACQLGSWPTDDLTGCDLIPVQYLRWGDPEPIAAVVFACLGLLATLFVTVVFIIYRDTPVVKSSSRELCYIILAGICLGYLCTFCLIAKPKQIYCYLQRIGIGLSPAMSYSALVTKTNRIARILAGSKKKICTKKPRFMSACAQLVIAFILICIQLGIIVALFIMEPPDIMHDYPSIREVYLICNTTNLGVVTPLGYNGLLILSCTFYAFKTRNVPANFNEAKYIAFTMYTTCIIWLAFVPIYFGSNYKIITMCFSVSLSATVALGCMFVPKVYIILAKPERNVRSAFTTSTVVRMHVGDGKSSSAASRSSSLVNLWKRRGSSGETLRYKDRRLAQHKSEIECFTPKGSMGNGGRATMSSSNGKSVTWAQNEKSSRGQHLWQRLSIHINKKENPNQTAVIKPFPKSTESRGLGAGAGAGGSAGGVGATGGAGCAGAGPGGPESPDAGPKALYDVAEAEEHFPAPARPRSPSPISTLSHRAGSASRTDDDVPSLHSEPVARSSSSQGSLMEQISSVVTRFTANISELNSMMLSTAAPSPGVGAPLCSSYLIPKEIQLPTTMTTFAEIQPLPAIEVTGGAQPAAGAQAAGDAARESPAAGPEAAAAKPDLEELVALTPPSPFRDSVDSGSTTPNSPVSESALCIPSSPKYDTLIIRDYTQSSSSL

Row | Fold Increase 1 microM Glutam. [1] [fold] | Fold Increase Glutam. [1] [fold] | EC50 [1] [nM] | IC50 [2] [nM] | SMILES | also measured
1 | 3.11 | 4.7 | 777 |  | O=C(OCC1CC1)N1CCC2C(C#Cc3cccc(Cl)c3)=NOC21 (stereo not shown) [Example 22, cyclopropylmethyl-3-(3-chlorophenylethynyl)-3a,4,5,6a-tetrahydropyrrolo[3,2-d]isoxazole-6-carboxylate] | 
2 |  |  |  | > 1000 | CCOC(=O)N1CCC2C(C#Cc3cccc(C)n3)=NOC21 (stereo not shown) [Example 20, ethyl 3-[2-(6-methyl-2-pyridyl)ethynyl]-3a,4,5,6a-tetrahydropyrrolo[3,2-d]isoxazole-6-carboxylate] | Fold Inc. Quisq. ([3]; agonist quisqualate): 0 fold
3 |  |  |  | > 1000 | Cc1cccc(C#CC2=NOC3C2CCN3C(=O)N2CCCCC2)n1 (stereo not shown) [Example 17, [3-[2-(6-methyl-2-pyridyl)ethynyl]-3a,4,5,6a-tetrahydropyrrolo[3,2-d]isoxazol-6-yl]-(1-piperidyl)methanone] | Fold Inc. Quisq. ([3]; agonist quisqualate): 1.27 fold
4 |  | 0 |  |  | O=C(Nc1cccnc1)N1CCC2C(C#Cc3cccc(Cl)c3)=NOC21 (stereo not shown) [Example 36, 3-(3-chlorophenylethynyl)-N-(pyridin-3-yl)-3a,4,5,6a-tetrahydropyrrolo[3,2-d]isoxazole-6-carboxamide] | 
5 | 1.92 | 2.92 | 1100 |  | CN1CCN(C(=O)N2CCC3C(C#Cc4cccc(Cl)c4)=NOC32)CC1 (stereo not shown) [Example 32, 3-(3-chlorophenylethynyl)-3a,4,5,6a-tetrahydropyrrolo[3,2-d]isoxazol-6-yl-(4-methylpiperazin-1-yl)methanone] | 
6 | 2.14 | 5.29 | 301 |  | O=C(C1CCOCC1)N1CCC2C(C#Cc3cccc(Cl)c3)=NOC21 (stereo not shown) [Example 31, 3-(3-chlorophenylethynyl)-3a,4,5,6a-tetrahydropyrro[3,5,6a-tetrahdrorrolo3,2-d]oxazol-6-yl-(oxan-4-yl)methanone] | 
7 |  | 0 |  |  | CC(C)OC(=O)N1CCC2C(C#Cc3cccc(Cl)c3)=NOC21 (stereo not shown) [Example 21, isopropyl-3-(3-chlorophenylethynyl)-3a,4,5,6a-tetrahydropyrrolo[3,2-d]isoxazole-6-carboxylate] | 
8 |  | 0 |  |  | O=C(c1ccoc1)N1CCC2C(C#Cc3cccc(Cl)c3)=NOC21 (stereo not shown) [Example 28] | 
9 | 4.08 | 5.11 | 96.9 |  | O=C(NC1CCCC1)N1CCC2C(C#Cc3cccc(Cl)c3)=NOC21 (stereo not shown) [Example 27, 3-(3-chlorophenylethynyl)-N-cyclopentyl-3a,4,5,6a-tetrahydropyrrolo[3,2-d]isoxazole-6-carboxamide] | 
10 |  |  |  | 708 | Cc1cccc(C#CC2=NOC3C2CCN3C(=O)OC(C)(C)C)n1 (stereo not shown) [Example 5, tert-butyl 3-[2-(6-methyl-2-pyridyl)ethynyl]-3a,4,5,6a-tetrahydropyrrolo[3,2-d]isoxazole-6-carboxylate] | Fold Inc. Quisq. ([3]; agonist quisqualate): 0 fold

Further lines, the compound ahead of its results:

Row | SMILES | Fold Increase 1 microM Glutam. [1] [fold] | Fold Increase Glutam. [1] [fold] | EC50 [1] [nM] | IC50 [2] [nM] | also measured
11 | O=C(OC1CCCC1)N1CCC2C(C#Cc3cccc(Cl)c3)=NOC21 (stereo not shown) [Example 23, cyclopentyl-3-(3-chlorophenylethynyl)-3a,4,5,6a-tetrahydropyrrolo[3,2-d]isoxazole-6-carboxylate] |  |  | 144 |  | 
12 | O=C(N1CCOCC1)N1CCC2C(C#Cc3cccc(Cl)c3)=NOC21 (stereo not shown) [Example 6, [3-[2-(3-chlorophenyl)ethynyl]-3a,4,5,6a-tetrahydropyrrolo[3,2-d]isoxazol-6-yl]-morpholino-methanone] | 3.24 | 5.1 | 95.2 | 24.8 | Fold Shift 1 microM Quisq. ([3]; 1 microM, agonist quisqualate): 2.7 fold; Fold Inc. Quisq. ([3]; agonist quisqualate): 3.3 fold; EC50 ([3]; potentiation, agonist quisqualate at EC20, read-out: EC50 nM Quisq.): 132 nM
13 | CC(C)NC(=O)N1CCC2C(C#Cc3cccc(Cl)c3)=NOC21 (stereo not shown) [Example 25, 3-(3-chlorophenylethynyl)-N-(propan-2-yl)-3a,4,5,6a-tetrahydropyrrolo[3,2-d]isoxazole-6-carboxamide] |  | 0 |  |  | 
14 | O=C(C1CCCC1)N1CCC2C(C#Cc3cccc(Cl)c3)=NOC21 (stereo not shown) [Example 30, 3-(3-chlorophenylethynyl)-3a,4,5,6a-tetrahydropyrrolo[3,2-d]isoxazol-6-yl-(cyclopentyl)methanone] | 3.95 | 3.69 | 108 |  | 
15 | Cc1ccc(C(=O)N2CCC3C(C#Cc4cccc(Cl)c4)=NOC32)o1 (stereo not shown) [Example 29, 3-(3-chlorophenylethynyl)-3a,4,5,6a-tetrahydropyrrolo[3,2-d]isoxazol-6-yl-(5-methylfuran-2-yl)methanone] |  | 0 |  |  | 
16 | CCOC(=O)N1CCC2C(C#Cc3cccc(C)c3)=NOC21 (stereo not shown) [Example 16, ethyl 3-[2-(m-tolyl)ethynyl]-3a,4,5,6a-tetrahydropyrrolo[3,2-d]isoxazole-6-carboxylate] |  |  |  | 152 | 
17 | Cc1cccc(C#CC2=NOC3C2CCN3C(=O)N2CCCCC2)c1 (stereo not shown) [Example 12, [3-[2-(m-tolyl)ethynyl]-3a,4,5,6a-tetrahydropyrrolo[3,2-d]isoxazol-6-yl]-(1-piperidyl)methanone] |  |  |  | 10.6 | 
18 | Cc1cccc(C#CC2=NOC3C2CCN3C(=O)N2CCOCC2)n1 (stereo not shown) [Example 18, [3-[2-(6-methyl-2-pyridyl)ethynyl]-3a,4,5,6a-tetrahydropyrrolo[3,2-d]isoxazol-6-yl]-morpholino-methanone] |  |  |  | > 1000 | 
19 | CC(C)(C)COC(=O)N1CCC2C(C#Cc3cccc(Cl)c3)=NOC21 (stereo not shown) [Example 24, 2,2-dimethylpropyl-3-(3-chlorophenylethynyl)-3a,4,5,6a-tetrahydropvrrolo[3,2-d]isoxazole-6-carboxylate] | 8.48 | 5.8 | 33.9 |  | 
20 | CCN(C(=O)N1CCC2C(C#Cc3cccc(Cl)c3)=NOC21)C(C)C (stereo not shown) [Example 4, 3-[2-(3-chlorophenyl)ethynyl]-N-ethyl-N-isopropyl-3a,4,5,6a-tetrahydropyrrolo[3,2-d]isoxazole-6-carboxamide] |  |  |  | 6.99 | 
21 | CC(C)(C)NC(=O)N1CCC2C(C#Cc3cccc(Cl)c3)=NOC21 (stereo not shown) [Example 26, N-t-butyl-3-(3-chlorophenylethynyl)-3a,4,5,6a-tetrahydropyrrolo[3,2-d]isoxazole-6-carboxamide] | 2.65 | 5.09 | 54.6 |  | 
22 | CC(C)CCOC(=O)N1CCC2C(C#Cc3cccc(Cl)c3)=NOC21 (stereo not shown) [Example 34, 3-methylbutyl-3-(3-chlorophenylethynyl)-3a,4,5,6a-tetrahydropyrrolo[3,2-d]isoxazole-6-carboxylate] |  |  | 542 |  | 
23 | CON(C)C(=O)N1CCC2C(C#Cc3cccc(C)n3)=NOC21 (stereo not shown) [Example 19, N-methoxy-N-methyl-3-[2-(6-methyl-2-pyridyl)ethynyl]-3a,4,5,6a-tetrahydropyrrolo[3,2-d]isoxazole-6-carboxamide] |  |  |  | 239 | 
